Source: patent publication US20100099614A1, “Antimicrobial Peptides and Methods of Use” (priority 2008, published 2010)
Values after ≈ are worked out from the molar mass of the structure shown. Where two headings read alike, the source gives them in different places.

Tests used:
[1] = tested on: Scedosporium prolificans (clinical isolate); test: Antifungal activity (MIC50/MIC90); type: cell-based
Description: (§1) The filamentous fungal and yeast strains used in this study were either purchased from American Type Culture Collection, Manassas, Va. (ATCC) or were generous gifts from various institutions: Aspergillus nidulans (AZN 2867), Absidia corymbifera (clinical isolate), Rhizomucor spp. (clinical isolate), Rhizopus microsporus (clinical isolate), Rhizopus oryzae (AZN 8892), Scedosporium prolificans (clinical isolate), Candida albicans (ATCC 24433).
(§2) Fungal spores (final concentration 10^4 spores/ml) were suspended in ½ Potato Dextrose Broth (Difco), and the yeast strains were suspended at a starting A600=0.001 in the yeast complete medium YPG (1% yeast extract, 1% peptone, 2% glucose). The medium was supplemented with tetracycline (10 μg/ml) and cefotaxim (100 μg/ml), and dispensed by aliquots of 80 μl into wells of a microplate containing 20 μl of either water or the sample to be analyzed. Growth of fungi and yeasts was evaluated after 24 h at 30° C. by light microscopy and after 48 h by measuring the culture absorbance at 595 nm using a microplate reader. Under conditions where the antifungal assay was performed in the presence of salt, the ½ Potato Dextrose Broth medium was prepared in phosphate-buffered saline, 137 mM NaCl.
(§3) The procedure used for the determination of the minimal inhibitory concentration (MIC) was identical to that for the antifungal assay. The MIC values are expressed as the lowest peptide concentration that causes 90% or 50% growth inhibition. The fungicidal effects of the synthetic peptides in the MIC assay were verified by reinoculation of the yeasts in potato dextrose broth at the end of the incubation time.

[2] = tested on: Candida albicans (ATCC 24433); test: Antifungal activity (MIC50/MIC90); type: cell-based
Description: as §1, §2, §3

[3] = tested on: Aspergillus nidulans (AZN 2867); test: Antifungal activity (MIC50/MIC90); type: cell-based
Description: as §1, §2, §3

Gram-negative bacteria = test: Antibacterial activity (MIC), microtiter dilution; type: cell-based
Protocol: MICs were determined by a standard microtiter dilution method in Mueller Hinton Broth (MHB). Serial dilutions of the 10× compound were added to the microtiter plates in a volume of 10 μL followed by 90 μL of bacteria for an inoculum of 5×10^5 colony-forming units (CFU)/mL. The plates were incubated at 37° C. for 24 h, and the MICs were determined as the lowest peptide concentration that inhibited growth. […]
Alternatively; minimal inhibitory concentrations were determined using a standard microtiter dilution method in a Mueller-Hinton (MH) medium. Briefly, cells were grown overnight at 37° C. in MH broth and diluted in the same medium. Serial dilutions of the peptides were added to the microtiter plates in a volume of 100 μl followed by 10 μl of bacteria for an initial cell concentration of 1×10^5 CFU/ml. Plates were incubated at 37° C. for 24 hours and MICs determined as the lowest peptide concentration that inhibited growth.

[4] = Helical structure by circular dichroism spectroscopy; type: physicochemical; conditions: 222 nm
Protocol: The mean residue molar ellipticities of peptides were determined by circular dichroism (CD) spectroscopy, using a Jasco J-810 spectropolarimeter (Easton, Md.) at 5° C. under benign (non-denaturing) conditions (50 mM NaH2PO4/Na2HPO4/100 mM KCl, pH 7.0), hereafter referred to as benign buffer, as well as in the presence of an α-helix inducing solvent, 2,2,2-trifluoroethanol, TFE, (50 mM NaH2PO4/Na2HPO4/[…], pH 7.0 buffer/50% TFE). A 10-fold dilution of an approximately […] stock solution of the peptide analogs was loaded into a 0.1 cm quartz cell and its ellipticity scanned from 195 to 250 nm. The values of molar ellipticities of the peptide analogs at a wavelength of 222 nm were used to estimate the relative α-helicity of the peptides.

[5] = tested on: Rhizopus oryzae (AZN 8892)
[6] = tested on: Absidia corymbifera (clinical isolate); conditions: mean of 2 sets
[7] = tested on: Mycobacterium tuberculosis strain H37Rv
[8] = tested on: Rhizomucor spp. (clinical isolate)
[9] = tested on: Rhizopus microsporus (clinical isolate)

Structure (SMILES): CC[C@@H](C)[C@@H](NC(=O)[C@@H](C)NC(=O)[C@@H](CCCCN)NC(=O)[C@@H](CC(C)C)NC(=O)[C@@H](C)NC(=O)[C@H](NC(=O)[C@@H](Cc1c[nH]cn1)NC(=O)[C@@H](CC(C)C)NC(=O)[C@H](NC(=O)[C@H](NC(=O)[C@@H](CCCCN)NC(=O)[C@@H](CCCCN)NC(=O)[C@@H](C)NC(=O)[C@@H](CO)NC(=O)[C@@H](CCCCN)NC(=O)[C@@H](Cc1ccccc1)NC(=O)[C@H](NC(=O)[C@@H](CCCCN)NC(=O)[C@@H](CC(C)C)NC(=O)[C@@H](Cc1ccccc1)NC(=O)[C@@H](CO)NC(=O)[C@@H](CCCCN)NC(=O)[C@@H](Cc1c[nH]c2ccccc12)NC(=O)[C@@H](CCCCN)NC(C)=O)[C@H](C)O)[C@H](C)O)C(C)C)[C@H](C)O)C(=O)N[C@H](CO)C(=O)N[C@H](CO)C(N)=O [D1]
- fold less active than D4 (Ascomycota fungi; Ascomycota fungi): 5 fold
- Fold improvement in antifungal activity (geometric mean data) compared to that of D4, Ascomycota fungi (Ascomycota fungi; relative to D4): 0.2 fold
- GM (geometric mean of the MIC50 values), Ascomycota fungi (Ascomycota fungi; three Ascomycota strains): 28.6 µg/mL
- S. prolificans MIC50 ([1]; inhibits 50% of fungal growth): 50.0 µg/mL
- S. prolificans MIC90 ([1]; inhibits 90% of fungal growth): 50.0 µg/mL
- C. albicans MIC50 ([2]; inhibits 50% of fungal growth): 50.0 µg/mL
- C. albicans MIC90 ([2]; inhibits 90% of fungal growth): 50.0 µg/mL
- A. nidulans MIC50 ([3]; inhibits 50% of fungal growth): 9.4 µg/mL
- A. nidulans MIC90 ([3]; inhibits 90% of fungal growth): 50.0 µg/mL
- MIC E. coli C498 UB1005 (Gram-negative bacteria; E. coli C498 UB1005, MH medium, 37° C., 24 h): 2 µg/mL (≈ 0.669 µM)
- MIC E. coli C857 DH5a (Gram-negative bacteria; E. coli C857 DH5a, MH medium, 37° C., 24 h): 2 µg/mL (≈ 0.669 µM)
- MIC E. coli UB1005 (Gram-negative bacteria; E. coli UB1005, MH medium, 37° C., 24 h): 4 µg/mL (≈ 1.34 µM)
- MIC P. aeruginosa PAO1 (Gram-negative bacteria; P. aeruginosa PAO1, Mueller-Hinton medium, 37° C., 24 h, four sets of determinations): 8 µg/mL (≈ 2.68 µM)
- MIC S. ryphimurium 14208S (Gram-negative bacteria; S. ryphimurium 14208S, MH medium, 37° C., 24 h): 32 µg/mL (≈ 10.7 µM)
- MIC S. ryphimurium C587 14208S (Gram-negative bacteria; S. ryphimurium C587 14208S, MH medium, 37° C., 24 h): 4 µg/mL (≈ 1.34 µM)
- Fold improvement in antimicrobial activity (geometric mean data) compared to that of D4, Gram-negative bacteria (Gram-negative bacteria; relative to D4): 4.5 fold
- MIC GM (geometric mean of the MIC values), Gram-negative bacteria (Gram-negative bacteria; six Gram-negative strains, 128 μg/mL used where no activity at 64 μg/mL): 5.0 µg/mL
- GM (geometric mean of the MIC50 values), Zygomycota fungi (Zygomycota fungi; four Zygomycota strains): 9.1 µg/mL
- Fold improvement in antifungal activity (geometric mean data) compared to that of D4, Zygomycota fungi (Zygomycota fungi; relative to D4): 5.5 fold
- 50% TFE [θ]222 (mean residue molar ellipticity) ([4]; benign buffer containing 50% trifluoroethanol): 34,100 deg cm^2/dmol
- Benign [θ]222 (mean residue molar ellipticity) ([4]; benign conditions (100 mM KCl, 50 mM NaH2PO4/Na2HPO4, pH 7.0)): 1,150 deg cm^2/dmol
- R. oryzae MIC50 ([5]; inhibits 50% of fungal growth): 18.8 µg/mL
- R. oryzae MIC90 ([5]; inhibits 90% of fungal growth): 25.0 µg/mL
- MIC B. subtilus C626 (Gram-positive bacteria; B. subtilus C626, MH medium, 37° C., 24 h): 32 µg/mL (≈ 10.7 µM)
- MIC B. subtilus C971 ATCC6633 (Gram-positive bacteria; B. subtilus C971 ATCC6633, MH medium, 37° C., 24 h): 2 µg/mL (≈ 0.669 µM)
- MIC E. jaecalis C625 (Gram-positive bacteria; E. jaecalis C625, MH medium, 37° C., 24 h): 32 µg/mL (≈ 10.7 µM)
- MIC S. aureus C622 ATCC3923 (Gram-positive bacteria; S. aureus C622 ATCC3923, MH medium, 37° C., 24 h): 64 µg/mL (≈ 21.4 µM)
- MIC S. aureus K147 (Gram-positive bacteria; S. aureus K147, MH medium, 37° C., 24 h): 64 µg/mL (≈ 21.4 µM)
- MIC S. epidermidis C623 (Gram-positive bacteria; S. epidermidis C623, MH medium, 37° C., 24 h): 4 µg/mL (≈ 1.34 µM)
- Fold improvement in antimicrobial activity (geometric mean data) compared to that of D4, Gram-positive bacteria (Gram-positive bacteria; relative to D4): 0.9 fold
- MIC GM (geometric mean of the MIC values), Gram-positive bacteria (Gram-positive bacteria; six Gram-positive strains): 18.0 µg/mL
- A. corymbifera MIC50 ([6]; peptide concentration that inhibits 50% of fungal growth): 12.5 µg/mL
- A. corymbifera MIC90 ([6]; peptide concentration that inhibits 90% of fungal growth): 12.5 µg/mL
- Anti-tuberculosis activity MIC [7]: 70.7 ± 14.8 µg/mL
- Anti-tuberculosis activity to H37Rv strain Fold (compared to D4) [7]: 2.3 fold
- Anti-tuberculosis activity MIC ([7]; H37Rv): 23.6 ± 5.0 µM
- Anti-tuberculosis activity to H37Rv strain MIC ([7]; H37Rv): 23.6 µM
- Anti-tuberculosis activity to H37Rv strain MIC ([7]; further experiments, […]): 70.7 µg/mL
- Rhizomucor spp. MIC50 ([8]; inhibits 50% of fungal growth): 4.7 µg/mL
- Rhizomucor spp. MIC90 ([8]; inhibits 90% of fungal growth): 6.3 µg/mL
- R. micosporus MIC50 ([9]; inhibits 50% of fungal growth): 6.3 µg/mL
- R. micosporus MIC90 ([9]; inhibits 90% of fungal growth): 12.5 µg/mL
